Experimental data from patent publication US5079257A, “Indoloquinone compounds” (priority 1986, dated 1992).
In brackets after ≈: the same amount, converted by molar mass. Like-named read-outs stand apart in the source and are kept apart here.

Columns and labels:
IgR37 cells melanoma = test: In vitro panel of human tumour lines (TNO): IgR-37; format: cell-based; settings: about 72 hours; note: key: -: no inhibition of cell growth; +: total cell-kill
Method: (§1) Compounds E.O. 1, E.O. 2, E.O. 4, E.O. 4A, E.O. 8, E.O. 9, […], E.O. 33, and E.O. 35 were tested for their activity against five human tumour cell lines at the Radiobiological Institute TNO Rijswijk.
(§2) The new in vitro prescreen uses human tumour clones; it was set up by Dr. P. Lelieveld at TNO Rijswijk and comprises testing compounds in a bioliquid assay for their cytostatic activity against the following five human tumour lines:
(§3) After a continuous exposure to the drugs to be tested and to Adriamycin in `24 well tissue culture clusters, type 3524 (Costar)`, the remaining cells are fixed and stained. Using increasing drug concentrations the inhibiting concentration can be estimated qualitatively.
(§4) Cells: the human tumour cells are maintained in Dulbecco's medium supplemented with 10 percent foetal calf serum.
(§5) A, T and Z cell suspensions: 5·10^4 cells/ml
(§6) The cells were grafted into 16 mm wells for 48 hours (0.5 ml cell suspension per well was used).
(§7) Drugs: the compound to be tested was dissolved in appropriate concentrations in a mixture of Hepes-buffered Hanks' balanced salt solution and ethanol. The drug solutions (0.05 ml) were added to the different wells. The final ethanol concentration in each well was less than one percent.
(§8) The cells were continuously incubated with the compound under test at 37° in an atmosphere of 10 percent CO2 in humidified air for about 72 hours.
(§9) Determination of the inhibiting dose: the cells were fixed and stained with a solution of crystal violet in methanol/formaldehyde.

[1] = system: T 24 cells; bladder carcinoma; test: In vitro panel of human tumour lines (TNO): T 24; format: cell-based; settings: about 72 hours; note: key: -: no inhibition of cell growth; +: total cell-kill
Method: as §1, §2, §3, §4, §5, §6, §7, §8, §9

MCF7 breast cancer cells = test: In vitro panel of human tumour lines (TNO): MCF-7; format: cell-based; settings: about 72 hours; note: key: -: no inhibition of cell growth; +: total cell-kill
Method: as §1, §2, §3, §4
(§10) M and W cell suspensions: 10^5 cells/ml.
as §6, §7, §8, §9

[2] = system: A 204 cells; rhabdomyosarcoma; test: In vitro panel of human tumour lines (TNO): A 204; format: cell-based; settings: about 72 hours; note: key: -: no inhibition of cell growth; +: total cell-kill
Method: as §1, §2, §3, §4, §5, §6, §7, §8, §9

WiDr cells; colon tumour = test: In vitro panel of human tumour lines (TNO): WiDr; format: cell-based; settings: about 72 hours; note: key: -: no inhibition of cell growth; +: total cell-kill
Method: as §1, §2, §3, §4, §10, §6, §7, §8, §9

[3] = system: R-1 cells (Rhabdomyosarcoma Cells); test: R-1 activity (bioliquid assay), cytotoxicity; format: cell-based; settings: Rhabdomyosarcoma cell, read-out: ID-50 R-1
From the text: The indoloquinones II (formula II) have been tested in respect of their cytotoxic activity against L1210 cells and R-1 cells (Rhabdomyosarcoma Cells) in a bioliquid assay at the department of oncology of the Free University of Amsterdam (Table I). […] (Table II). Eight indoloquinones (E.O. 1, E.O. 2, E.O. 4, E.O. 4A, E.O. 8, E.O. 9, E.O. 33 and E.O. 35) have been tested in a panel of five human tumour lines (TNO Rijswijk; Table III).
For the determination of the R-1 activity, Rhabdomyosarcoma cells were brought into Falcon multiwells (growth area: 9.6 cm^2) (~10^6 cells per dish) containing 3 ml of Dulbecco's medium supplemented with 10% Foeto Calf Serum (FCS). […] Thereupon the drug solution was removed and the cells were covered with fresh medium. After 48 hours the cells were trypsinized and counted on a Sysmex microcell counter (CC110).
(§11) The in vitro L1210 and R-1 activities of the indoloquinones (formula III), were also determined in the bioliquid assays as described above.

[4] = Half-wave reduction potentials / polarography (University of Utrecht); format: physicochemical; settings: for E1/2, halve wave reduction potential: Table IA, only the first (quinone) reduction potential
From the text: *The halve wave reduction potentials (E1/2) have been determined at the
Pharmaceutical Laboratory of University of Utrecht. Only the first
(quinone) reduction potential has been given.
Additional evidence for the occurrence of a bioreductive activation mechanism during the cytotoxic action of indoloquinones (II) was obtained via electrochemical studies, which have been carried out at the Pharmaceutical Laboratory of the University of Utrecht. […]

L1210 cells = test: L1210 activity (bioliquid assay), cytotoxicity; format: cell-based; settings: for IC50: Mus musculus, read-out: ID-50 L1210; for ID-50 L1210: Table VI, 2880 min
From the text: The indoloquinones II (formula II) have been tested in respect of their cytotoxic activity against L1210 cells and R-1 cells (Rhabdomyosarcoma Cells) in a bioliquid assay at the department of oncology of the Free University of Amsterdam (Table I). In addition to this seven compounds (E.O. 1, E.O. 2, E.O. 4, E.O. 7, E.O. 9, E.O. 16 and E.O. 17) have been tested on L1210 activity in a clonogenic assay at TNO, Rijswijk. Further, the lowest active doses of the compounds E.O. 1, E.O. 2, E.O. 4 and E.O. 9 have been determined at TNO Rijswijk, according to the method described by Lamberts et al. [Oncology, 40, 301 (1983)]. (Table II). Eight indoloquinones (E.O. 1, E.O. 2, E.O. 4, E.O. 4A, E.O. 8, E.O. 9, E.O. 33 and E.O. 35) have been tested in a panel of five human tumour lines (TNO Rijswijk; Table III). From the latter group three indoloquinones (E.O. 1, E.O. 4 and E.O. 9) have been selected for a cytotoxicity study, involving five slowly growing human tumour lines (University of Freiburg; Table IV).
For this purpose, L1210 cells were grown, as suspension, in Falcon multi-wells (growth area: 9.6 cm^2) using RPMI supplemented with 15% FCS and 2-mercapto-ethanol (60 μmol) as medium. In this medium, the cells were continuously incubated with the compound to be tested at 37° C. in an atmosphere of 5% CO2 in humidified air for 48 hours. Thereupon they were counted on a Sysmex microcell counter (CC110).
as §11

[5] = L1210, Table I, bioliquid assay, 48 hours
[6] = Table IA, para-indoloquinone diesters
[7] = L1210, 48 h, Table IA, para-indoloquinone diesters

Structure (SMILES) | in vitro activity score, IgR-37 (IgR37 cells melanoma; 0.01 μg/ml) | in vitro activity score, IgR-37 (IgR37 cells melanoma; 0.1 μg/ml) | in vitro activity score, T 24 ([1]; 0.1 μg/ml) | in vitro activity score, WiDr (WiDr cells; colon tumour; 0.01 μg/ml) | in vitro activity score, WiDr (WiDr cells; colon tumour; 0.1 μg/ml) | IC50 ([3]; Table I, bioliquid assay) [µg/mL] | IC50 ([3]; Table VI) [µg/mL] | IC50 (L1210 cells; [5]) [µg/mL] | ID-50 L1210 (L1210 cells) [µg/mL] | further results
N.N.[Cl][Pt][Cl] [Cisplatin, reference compound] | - | - | - | - | - |  |  |  |  | in vitro activity score, IgR-37 (IgR37 cells melanoma; 10 μg/ml): +; in vitro activity score, T 24 ([1]; 0.01 μg/ml): -; in vitro activity score, T 24 ([1]; 10 μg/ml): +; in vitro activity score, MCF-7 (MCF7 breast cancer cells; 0.01 μg/ml): -; in vitro activity score, MCF-7 (MCF7 breast cancer cells; 0.1 μg/ml): -; in vitro activity score, MCF-7 (MCF7 breast cancer cells; 1.0 μg/ml): -; in vitro activity score, A 204 ([2]; 0.01 μg/ml): -; in vitro activity score, A 204 ([2]; 0.1 μg/ml): -; in vitro activity score, A 204 ([2]; 10 μg/ml): +; in vitro activity score, WiDr (WiDr cells; colon tumour; 1.0 μg/ml): -; in vitro activity score, WiDr (WiDr cells; colon tumour; 10 μg/ml): +
CC(=O)OC/C=C/c1c(COC(C)=O)c2c(n1C)C(=O)C=C(NCC(O)CO)C2=O (stereo not drawn) [E.O. 6, 3-Acetoxymethyl-5-(2,3-dihydroxypropyl-1-amino)-1-methyl-2-[1H-indole-4,7-dione]prop-β-en-α-yl acetate] |  |  |  |  |  | > 10 | > 10 | > 10 | > 10 | direct current polarogram ([4]; DC-polarography): two or more reduction waves; half-wave potential E1.2, wave I ([4]; pH = 8 vs Ag/AgCl): -515 mV; half-wave potential E1.2, wave III ([4]; pH = 8 vs Ag/AgCl): -600 mV; half-wave potential E1.2, wave IV ([4]; pH = 8 vs Ag/AgCl): -985 mV
Cn1c(/C=C/CO)c(CO)c2c1C(=O)C=C(N1CCC(O)CC1)C2=O [E.O. 11, 3-Hydroxymethyl-5-(4-hydroxypiperidino)-1-methyl-2-[1H-indole-4,7-dione]prop-β-en-α-ol] |  |  |  |  |  | > 10 | > 10 | > 10 | > 10 | half-wave potential E1.2, wave I ([4]; pH = 8 vs Ag/AgCl): -430 mV
Cn1c(/C=C/CO)c(CO)c2c1C(=O)C=C(N1CCOCC1)C2=O [E.O. 12, 3-Hydroxymethyl-1-methyl-5-morpholino-2-[1H-indole-4,7-dione]prop-β-en-α-ol] |  |  |  |  |  | > 10 | > 10 | 3.8 (≈ 11.4 µM) |  | half-wave potential E1.2, wave I ([4]; pH = 8 vs Ag/AgCl): -420 mV
COC(=O)/C=C/c1c(C(=O)OC)c2c(n1C)C(=O)C=C(OC)C2=O [E.O. 14, Methyl 5-methoxy-3-methoxycarbonyl-1-methyl-2-[1H-indole-4,7-dione]acrylate] |  |  |  |  |  |  |  |  |  | IC50 [3, 6]: > 10 µg/mL; E1/2, halve wave reduction potential [4]: -243 mV; IC50 (L1210 cells; [7]): 0.8 µg/mL (≈ 2.4 µM)
COC(=O)/C=C/c1c(C(=O)OC)c2c(n1C)C(=O)C=C(NCC(O)CO)C2=O (centres unmarked) [E.O. 23, Methyl 5-(2,3-dihydroxypropyl-1-amino)-3-methoxycarbonyl-1-methyl-2-[1H-indole-4,7-dione]acrylate] |  |  |  |  |  |  |  |  |  | IC50 [3, 6]: > 10 µg/mL; E1/2, halve wave reduction potential [4]: -343 mV; IC50 (L1210 cells; [7]): > 10 µg/mL
COC1=C(C)C(=O)c2c(c(COC(C)=O)c(/C=C/COC(C)=O)n2C)C1=O [E.O. 33, 3-Acetoxymethyl-1,6-dimethyl-5-methoxy-2-[1H-indole-4,7-dione]prop-β-en-α-yl acetate] | - | - | - | - | - | 2.2 |  | 3.6 |  | in vitro activity score, IgR-37 (IgR37 cells melanoma; 1.0 μg/ml): -; in vitro activity score, IgR-37 (IgR37 cells melanoma; 10 μg/ml): +; in vitro activity score, T 24 ([1]; 0.01 μg/ml): -; in vitro activity score, T 24 ([1]; 1.0 μg/ml): -; in vitro activity score, T 24 ([1]; 10 μg/ml): +; in vitro activity score, MCF-7 (MCF7 breast cancer cells; 0.01 μg/ml): -; in vitro activity score, MCF-7 (MCF7 breast cancer cells; 0.1 μg/ml): -; in vitro activity score, MCF-7 (MCF7 breast cancer cells; 1.0 μg/ml): -; in vitro activity score, A 204 ([2]; 0.01 μg/ml): -; in vitro activity score, A 204 ([2]; 0.1 μg/ml): -; in vitro activity score, A 204 ([2]; 1.0 μg/ml): -; in vitro activity score, A 204 ([2]; 10 μg/ml): +; in vitro activity score, WiDr (WiDr cells; colon tumour; 1.0 μg/ml): -
CCNC1=CC(=O)c2c(c(COC(C)=O)c(/C=C/CO)n2C)C1=O [E.O. 59, 3-Acetoxymethyl-5-ethylamino-1-methyl-2-[1H-indole-4,7-dione]prop-β-en-α-ol] |  |  |  |  |  | > 10 |  | > 10 |  | 
CC(=O)OC/C=C/c1c(COC(C)=O)c2c(n1C)C(=O)C=C(N1CCOCC1)C2=O [E.O. 60, 3-Acetoxymethyl-1-methyl-5-morpholino-2-[1H-indole-4,7-dione]prop-β-en-α-yl acetate] |  |  |  |  |  | 3.3 |  | > 10 | > 10 | 
CC(=O)OCc1c2c(n(C)c1/C=C/CO)C(=O)C=C(NCCc1ccccn1)C2=O [E.O. 62, 3-Acetoxymethyl-1-methyl-5-[2-pyridylethyl-1-amino]-2-[1H-indole-4,7-dione]prop-β-en-α-ol] |  |  |  |  |  | > 10 | > 10 | > 10 | > 10 | 
CCC1(O)CC2CN(CCc3c([nH]c4ccccc34)C(C(=O)OC)(c3cc4c(cc3OC)N(C)C3C(O)(C(=O)OC)C(OC(C)=O)C5(CC)C=CCN6CCC43C65)C2)C1 (centres unmarked) [Vinblast., reference compound] | + | + | + | + | + |  |  |  |  | in vitro activity score, MCF-7 (MCF7 breast cancer cells; 1.0 μg/ml): +; in vitro activity score, MCF-7 (MCF7 breast cancer cells; 10 μg/ml): +; in vitro activity score, WiDr (WiDr cells; colon tumour; 1.0 μg/ml): +; in vitro activity score, WiDr (WiDr cells; colon tumour; 10 μg/ml): +
CCC1(O)CC2CN(CCc3c([nH]c4ccccc34)C(C(=O)OC)(c3cc4c(cc3OC)N(C=O)C3C(O)(C(=O)OC)C(OC(C)=O)C5(CC)C=CCN6CCC43C65)C2)C1 (centres unmarked) [Vincrist., reference compound] | + | + | + | + | + |  |  |  |  | in vitro activity score, T 24 ([1]; 0.01 μg/ml): -
